Data on 9 compounds can be found in patent publication US20260000676A1, “CHROMAN DERIVATIVES AS ESTROGEN RECEPTOR DEGRADERS” (THE REGENTS OF THE UNIVERSITY OF MICHIGAN, priority 2022, published 2026).

As a reminder, the DC50 is the concentration giving 50% degradation. A low value points to a more potent degrader. One may read the Dmax as the greatest extent of degradation seen. Read a high Dmax as a fuller loss of target. In general, IC50 refers to the point on the concentration scale where inhibition reaches its midpoint.

For test [1], the target named is T1, ER (Homo sapiens (Human), UniProt P03372). Kind of test: In-cell western (ICW) ER degradation assay in T47D cells. The class given is cell-based. Particulars: 16 hrs; for DC50: ER degradation.
For test [2], the target named is T1, ER. Kind of test: In-cell western (ICW) ER degradation assay in MCF-7 cells. It counts as cell-based. Particulars: MCF7, 16 hrs; for DC50: ER degradation.
Another test has as its target CRBN/DDB1 (Homo sapiens (Human), UniProt Q96SW2). Kind of test: HTRF binding assay to CRBN/DDB1. Particulars: read-out: CRBN HTRF IC50. How it is done:
The binding potency was determined using HTRF assay technology (Perkin Elmer). Compounds were serially diluted in DMSO and 0.2 μL volume was transferred to white 384-well plate.
A general note: In TR-FRET formats the signal depends on donor and acceptor labels being close together.

Each structure is given as a SMILES string. Structures can show the parent of a compound that is named as a salt.

T1 sequence (P03372 whole entry): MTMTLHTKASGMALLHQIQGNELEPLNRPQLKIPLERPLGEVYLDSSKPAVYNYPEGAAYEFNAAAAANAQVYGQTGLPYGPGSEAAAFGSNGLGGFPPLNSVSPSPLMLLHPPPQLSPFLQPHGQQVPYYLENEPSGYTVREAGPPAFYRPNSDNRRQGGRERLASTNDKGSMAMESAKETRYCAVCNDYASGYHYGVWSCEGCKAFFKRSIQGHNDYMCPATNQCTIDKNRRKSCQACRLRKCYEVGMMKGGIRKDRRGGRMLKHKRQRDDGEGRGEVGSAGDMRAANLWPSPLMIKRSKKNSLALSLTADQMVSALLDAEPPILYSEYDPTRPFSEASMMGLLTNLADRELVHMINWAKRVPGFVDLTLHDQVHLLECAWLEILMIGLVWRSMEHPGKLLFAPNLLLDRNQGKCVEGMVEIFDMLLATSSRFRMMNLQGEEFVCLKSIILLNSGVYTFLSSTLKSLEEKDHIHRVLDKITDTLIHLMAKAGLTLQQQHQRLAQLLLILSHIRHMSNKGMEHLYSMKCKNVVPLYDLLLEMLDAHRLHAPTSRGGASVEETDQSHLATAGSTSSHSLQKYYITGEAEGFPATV
Sequence of CRBN/DDB1 (Q96SW2 whole entry): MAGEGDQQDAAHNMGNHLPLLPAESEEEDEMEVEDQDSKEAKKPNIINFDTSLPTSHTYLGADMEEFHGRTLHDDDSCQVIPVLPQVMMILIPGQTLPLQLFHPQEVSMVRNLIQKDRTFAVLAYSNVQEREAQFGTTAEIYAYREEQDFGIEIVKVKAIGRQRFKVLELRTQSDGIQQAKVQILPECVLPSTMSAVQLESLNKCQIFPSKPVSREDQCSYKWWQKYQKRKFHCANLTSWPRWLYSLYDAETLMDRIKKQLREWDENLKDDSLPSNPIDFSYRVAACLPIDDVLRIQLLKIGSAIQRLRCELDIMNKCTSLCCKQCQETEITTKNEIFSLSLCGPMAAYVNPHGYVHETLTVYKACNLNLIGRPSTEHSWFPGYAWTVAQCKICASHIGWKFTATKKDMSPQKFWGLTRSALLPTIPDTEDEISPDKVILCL
Sequence of CRBN/DDB1 (Q16531 whole entry partner): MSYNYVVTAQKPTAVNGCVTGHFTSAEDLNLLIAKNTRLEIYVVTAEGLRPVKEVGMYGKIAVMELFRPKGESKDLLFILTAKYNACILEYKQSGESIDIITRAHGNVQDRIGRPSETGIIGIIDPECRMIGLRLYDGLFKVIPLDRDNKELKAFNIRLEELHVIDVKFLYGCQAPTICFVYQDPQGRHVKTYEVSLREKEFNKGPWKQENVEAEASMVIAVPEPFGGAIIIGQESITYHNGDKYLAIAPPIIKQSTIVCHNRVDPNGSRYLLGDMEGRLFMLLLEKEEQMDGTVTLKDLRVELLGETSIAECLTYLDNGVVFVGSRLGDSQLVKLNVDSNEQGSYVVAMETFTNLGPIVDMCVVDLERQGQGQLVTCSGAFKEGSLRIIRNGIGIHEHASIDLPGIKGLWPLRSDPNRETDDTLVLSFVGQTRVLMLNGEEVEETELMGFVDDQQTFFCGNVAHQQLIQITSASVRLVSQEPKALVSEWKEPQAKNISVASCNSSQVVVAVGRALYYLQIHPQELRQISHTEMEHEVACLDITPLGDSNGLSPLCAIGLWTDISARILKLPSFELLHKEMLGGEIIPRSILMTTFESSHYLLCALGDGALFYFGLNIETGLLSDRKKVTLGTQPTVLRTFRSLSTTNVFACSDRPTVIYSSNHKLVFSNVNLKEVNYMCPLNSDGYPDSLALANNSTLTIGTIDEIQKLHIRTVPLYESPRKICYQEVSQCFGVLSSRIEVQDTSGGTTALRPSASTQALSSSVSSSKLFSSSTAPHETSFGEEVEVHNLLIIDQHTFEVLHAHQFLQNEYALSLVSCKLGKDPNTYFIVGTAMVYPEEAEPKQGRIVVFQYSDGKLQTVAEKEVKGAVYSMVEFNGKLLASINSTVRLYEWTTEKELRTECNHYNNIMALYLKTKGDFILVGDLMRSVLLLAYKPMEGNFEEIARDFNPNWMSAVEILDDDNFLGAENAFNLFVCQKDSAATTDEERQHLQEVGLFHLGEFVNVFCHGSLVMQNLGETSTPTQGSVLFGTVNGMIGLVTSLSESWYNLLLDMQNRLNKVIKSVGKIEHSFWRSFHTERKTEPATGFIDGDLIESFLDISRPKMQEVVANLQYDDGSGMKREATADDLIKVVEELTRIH

Turning to `O=C1CCC(N2C(=O)c3cc4c(cc3C2=O)CN(C(=O)CN2CC3(CCN(c5ccc([C@H]6c7ccc(O)cc7OC[C@H]6c6ccccc6)cc5)CC3)C2)C4)C(=O)N1` (single isomer, unassigned) [Compound A55, formate], the half-maximal degradation concentration (DC50) on ER [1] and on ER [2] was over 100 nM throughout. Moreover, the Dmax at ER [1] (maximal ER degradation) was under 25%; on ER [2] (MCF7, maximal ER degradation), under 25%. On CRBN/DDB1, the IC50 is 500 to 5000 nM.

Turning to `O=C1CCC(N2Cc3c(ccc4c3OC[C@H]3CN(CC5CC6(CCN(c7ccc([C@@H]8c9ccc(O)cc9OC[C@@H]8c8ccccc8)cn7)CC6)C5)CCN43)C2=O)C(=O)N1` (single isomer, unassigned) [Compound A65], the DC50 at ER [1] and on ER [2] was 1 to 10 nM throughout. The “T47D Dmax %” value at ER [1] (maximal ER degradation) is given as “C (“C”: 25%-50%)”. Moreover, the “MCF7 Dmax %” value on ER [2] (maximal ER degradation) is on record as “D (“D”; <25%)”. Further, the IC50 at CRBN/DDB1 was in the range of 50 to 500 nM.

On to `O=C1CCN(c2ccc(N3CCN(CC4CC5(CCN(c6ccc([C@@H]7c8ccc(O)cc8OC[C@@H]7c7ccccc7)cc6)CC5)C4)CC3)cc2)C(=O)N1` (single isomer, unassigned) [Compound A83], for which the DC50 at ER [1] is over 100 nM. The compound further registered a maximal degradation (Dmax) on ER [1] (maximal ER degradation) of under 25%. Also, on CRBN/DDB1, the IC50 was over 5000 nM.

Take `COc1nc(C(=O)NC2CCC(=O)NC2=O)ccc1N1CCN(CC2CC3(CCN(c4ccc([C@H]5c6ccc(O)cc6OC[C@H]5c5ccccc5)cc4)CC3)C2)CC1` (single isomer, unassigned) [Compound A97]: at ER [1], the DC50 is under 1 nM. Further, the maximal degradation (Dmax) on ER [1] (maximal ER degradation) lay within 25 to 50%. Moreover, the 50% inhibitory concentration (IC50) at CRBN/DDB1 fell in the range of 500 to 5000 nM.

`COc1cc(N2CCC(CN3CCN4c5ccc6c(c5OC[C@H]4C3)CN(C3CCC(=O)NC3=O)C6=O)CC2)ccc1[C@H]1c2ccc(O)cc2OC[C@H]1c1ccccc1` (stereo partly drawn) [Compound A76, 3-((R)-7-((1-(4-((3R,4S)-7-hydroxy-3-phenylchroman-4-yl)-3-methoxyphenyl)piperidin-4-yl)methyl)-1-oxo-1,3,5,5a,6,7,8,9-octahydro-2H-81pyrazino[1′,2′:4,5][1,4]oxazino[2,3-e]isoindol-2-yl)piperidine-2,6-dione] yielded a DC50 on ER [1] of over 100 nM. The same compound had a Dmax at ER [1] (maximal ER degradation) of under 25%. Further, the IC50 on CRBN/DDB1 fell in the range of 50 to 500 nM.

On to `O=C1CCC(Nc2ccc3c(c2)OC[C@H]2CN(CC4CC5(CCN(c6ccc([C@@H]7c8ccc(O)cc8OC[C@@H]7c7ccccc7)cc6)CC5)C4)CCN32)C(=O)N1` (stereo partly drawn) [Compound A94, 3-(((R)-3-((7-(4-((3S,4R)-7-hydroxy-3-phenylchroman-4-yl)phenyl)-7-azaspiro[3.5]nonan-2-yl)methyl)-1,2,3,4,4a,5-hexahydrobenzo[b]pyrazino[1,2-d][1,4]oxazin-8-yl)amino)piperidine-2,6-dione], for which the half-maximal degradation concentration (DC50) on ER [1] was 1 to 10 nM. The compound also yielded a maximal degradation (Dmax) on ER [1] (maximal ER degradation) of 50 to 75%. In addition, the IC50 on CRBN/DDB1 lay within 500 to 5000 nM.

In turn, `O=C1CCC(N2C(=O)c3cc4c(cc3C2=O)CN(C(=O)C2CCN(C3CCN(c5ccc([C@H]6c7ccc(O)cc7OC[C@H]6c6ccccc6)cc5)CC3)CC2)C4)C(=O)N1` (single isomer, unassigned) [Compound A78] had a 50% degradation concentration (DC50) on ER [1] of 10 to 100 nM. This compound also gave a Dmax at ER [1] (maximal ER degradation) of 25 to 50%. At CRBN/DDB1, the IC50 is 500 to 5000 nM.

`O=C1CCN(c2ccc(N3CCC(CN4CC5(CCN(c6ccc([C@@H]7c8ccc(O)cc8OC[C@@H]7c7ccccc7)cc6)CC5)C4)CC3)cc2)C(=O)N1` (single isomer, unassigned) [Compound A87]: the half-maximal degradation concentration (DC50) on ER [1] was 1 to 10 nM. For the same compound, the Dmax at ER [1] (maximal ER degradation) is 25 to 50%. Further, on CRBN/DDB1, the IC50 is over 5000 nM.

In turn, `O=C1CCC(N2Cc3cc4c(cc3C2=O)CN(C(=O)C2CCN(C3CCN(c5ccc([C@H]6c7ccc(O)cc7OC[C@H]6c6ccccc6)cc5)CC3)CC2)C4)C(=O)N1` (single isomer, unassigned) [Compound A80] gave a DC50 on ER [1] of 10 to 100 nM. The Dmax on ER [1] (maximal ER degradation) is 50 to 75%. The IC50 on CRBN/DDB1 lay within 500 to 5000 nM.
